# System: α2-subtype of the human α-adrenergic receptor
# Assay: SPA assay for affinity for the α2-subtype of the human α-adrenergic receptor (high throughput screening)
# Type: binding
# Details: at a concentration of 10 μM
# Procedure: The compounds according to the invention are ligands of the pain-relevant α2-subtype of the human α-adrenergic receptor. The affinity for the α2-subtype of the human α-adrenergic receptor was determined by means of a conventional SPA assay for high throughput screening, such as is described in John P. Devlin, High Throughput Screening, Marcel Dekker Inc. 1997, page 307 to 316. This literature is incorporated herein by reference and thus forms part of the disclosure. The following affinities were determined at a concentration of 10 μM: […]
row,SMILES,"alpha2 affinity, 10 μM [%]"
1,"c1ccc2c(-c3nc4nc[nH]n4c3NC3CCCCC3)cccc2c1 [Example 46, Cyclohexyl-(5-naphthalen-1-yl-imidazo[1,2-b][1,2,4]triazol-6-yl)-amine]",46
2,"CC(C)(C)Nc1c(-c2ccccc2F)nc2nc[nH]n12 [Example 43, tert-Butyl-[5-(2-fluorophenyl)-imidazo[1,2-b][1,2,4]triazol-6-yl]-amine]",34
3,"CC(C)(C)Nc1c(-c2cccc3ccccc23)nc2nc[nH]n12 [Example 45, tert-Butyl-(5-naphthalen-1-yl-imidazo[1,2-b][1,2,4]triazol-6-yl)-amine]",41
4,"Cc1ccc(-c2nc3sccn3c2NC2CCCCC2)c(C)c1 [Example 50, Cyclohexyl-[6-(2,4-dimethyl-phenyl)-imidazo[2,1-b]thiazol-5-yl]-amine]",36
5,"Cc1ccc(C)c(-c2nc3sccn3c2NC2CCCCC2)c1 [Example 51, Cyclohexyl-[6-(2,5-dimethylphenyl)-imidazo[2,1-b]thiazol-5-yl]-amine]",39
6,"CCCCNc1c(-c2ccc(C(C)(C)C)cc2)nc2sc(C)cn12 [Example 42, Butyl-[6-(4-tert-butyl-phenyl)-2-methyl-imidazo[2,1-b]thiazol-5-yl]-amine]",36
7,"CC(=O)Nc1ccc(-c2nc3nc[nH]n3c2NC2CCCCC2)cc1 [Example 48, N-[4-(6-Cyclohexylamino-imidazo[1,2-b][1,2,4]triazol-5-yl) -phenyl]-acetamide]",36
8,"CC(C)(C)Nc1c(-c2ccccc2F)nc2sccn12 [Example 44, tert-Butyl-[6-(2-fluorophenyl)-imidazo[2,1-b]thiazol-5-yl]-amine]",38
9,"Cc1ccc(C)c(-c2nc3nc[nH]n3c2NC(C)(C)C)c1 [Example 49, tert-Butyl-[5-(2,5-dimethyl-phenyl)-imidazo[1,2-b][1,2,4]triazol-6-yl]-amine]",38
10,"CC(C)(C)CC(C)(C)Nc1c(-c2ccccc2Br)nc2nc[nH]n12 [Example 47, [5-(2-Bromophenyl)-imidazo[1,2-b][1,2,4]triazol-6-yl]-(1,1,3,3-tetramethyl-butyl)-amine]",42

# Second part, the compound after the results:
row,"alpha2 affinity, 10 μM [%]",SMILES
1,56,"Cc1ccc(C)c(-c2nc3nc[nH]n3c2NC(C)(C)CC(C)(C)C)c1 [Example 54, [5-(2,5-Dimethyl-phenyl)-imidazo [1,2-b][1,2,4]triazol-6-yl]-(1,1,3,3-tetramethyl-butyl) -amine]"
2,39,"CCCCN(C(C)=O)c1c(-c2c(F)cccc2Cl)nc2nc[nH]n12 [Example 55, N-Butyl-N-[5-(2-chloro-6-fluorophenyl)-imidazo[1,2-b][1,2,4]triazol-6-yl]-acetamide]"
3,43,"Cc1ccc(-c2nc3nc[nH]n3c2NC(C)(C)CC(C)(C)C)c(C)c1 [Example 53, [5-(2,4-dimethyl-phenyl)-imidazo[1,2-b][1,2,4]triazol-6-yl]-(1,1,3,3-tetramethyl-butyl) -amine]"
4,46,"CCCCN(C(C)=O)c1c(-c2ccc(C(C)(C)C)cc2)nc2sc(C)cn12 [Example 56, N-Butyl-N-[6-(4-tert-butyl-phenyl)-2-methyl-imidazo[2,1-b]thiazol-5-yl]-acetamide]"
5,51,"CC(=O)N(c1c(-c2ccc(C)cc2)nc2sccn12)C(C)(C)C [Example 52, N-tert-Butyl-N-(6-p-tolyl-imidazo[2,1-b]thiazol-5-yl)-acetamide]"
